Laboratory results: PMC5485575, “Arginine kinase from Haemonchus contortus decreased the proliferation and increased the apoptosis of goat PBMCs in vitro” (Parasites & Vectors, 2017)

Target: T1, rHc-AK (Haemonchus contortus, UniProt K0DG62)
T1 construct: E. coli BL21(DE3), Ni-NTA
Experiment: fluorimetric ADP formation assay (Universal Fluorimetric Kinase Assay kit)
Format: biochemical
Details: room temperature, 30 min; 0-10 ug enzyme; substrates of the kinase reaction solution not named

T1 sequence (K0DG62 entry or part of it): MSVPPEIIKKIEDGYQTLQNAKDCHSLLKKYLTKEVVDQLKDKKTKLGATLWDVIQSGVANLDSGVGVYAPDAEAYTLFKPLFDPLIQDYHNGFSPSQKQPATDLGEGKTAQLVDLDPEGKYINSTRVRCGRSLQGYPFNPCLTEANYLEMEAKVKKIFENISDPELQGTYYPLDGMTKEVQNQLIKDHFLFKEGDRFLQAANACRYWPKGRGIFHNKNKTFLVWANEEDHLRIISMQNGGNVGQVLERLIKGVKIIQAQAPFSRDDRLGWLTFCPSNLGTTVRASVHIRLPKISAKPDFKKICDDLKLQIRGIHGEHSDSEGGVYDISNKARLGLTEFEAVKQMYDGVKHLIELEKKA

Structure (SMILES): Nc1ncnc2c1ncn2[C@@H]1O[C@H](COP(=O)(O)OP(=O)(O)O)[C@@H](O)[C@H]1O [ADP]
- fluorimetric ADP formation assay (Universal Fluorimetric Kinase Assay kit): results showed a remarkable augmentation in ADP generation with increased period
